Drawing on ChEMBL document CHEMBL4507319 (2021), this text covers residual activity and inhibition for two molecules.

For experiment [1], the target named is T1, Serine/threonine-protein kinase NLK (Homo sapiens) (UniProt Q9UBE8).
T1 sequence (whole entry): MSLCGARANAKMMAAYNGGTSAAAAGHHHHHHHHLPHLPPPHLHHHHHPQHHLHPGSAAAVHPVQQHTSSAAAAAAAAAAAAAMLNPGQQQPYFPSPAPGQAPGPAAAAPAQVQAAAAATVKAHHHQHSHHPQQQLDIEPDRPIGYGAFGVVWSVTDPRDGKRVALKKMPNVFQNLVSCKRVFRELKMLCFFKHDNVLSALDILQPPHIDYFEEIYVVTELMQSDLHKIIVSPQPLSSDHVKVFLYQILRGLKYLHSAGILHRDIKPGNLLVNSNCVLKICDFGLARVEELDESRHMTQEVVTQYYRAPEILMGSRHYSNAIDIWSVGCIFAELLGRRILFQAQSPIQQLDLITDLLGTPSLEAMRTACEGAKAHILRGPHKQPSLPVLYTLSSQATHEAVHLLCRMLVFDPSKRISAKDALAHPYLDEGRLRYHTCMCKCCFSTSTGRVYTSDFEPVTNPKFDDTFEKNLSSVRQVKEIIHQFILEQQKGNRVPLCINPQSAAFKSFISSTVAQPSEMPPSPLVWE
The note with it: Compound concentration 1000.0 nM.

The subject of experiment [2] is Serine/threonine-protein kinase B-raf (Homo sapiens), P15056 [V600E]. The following applies: Compound concentration 1000.0 nM.
Experiment [3] concerns the target Insulin receptor (Homo sapiens) (UniProt P06213). The note with it: Compound concentration 1000.0 nM.
Experiment [4] deals with T2, Ephrin type-A receptor 8 (Homo sapiens) (UniProt P29322).
T2 sequence (whole entry): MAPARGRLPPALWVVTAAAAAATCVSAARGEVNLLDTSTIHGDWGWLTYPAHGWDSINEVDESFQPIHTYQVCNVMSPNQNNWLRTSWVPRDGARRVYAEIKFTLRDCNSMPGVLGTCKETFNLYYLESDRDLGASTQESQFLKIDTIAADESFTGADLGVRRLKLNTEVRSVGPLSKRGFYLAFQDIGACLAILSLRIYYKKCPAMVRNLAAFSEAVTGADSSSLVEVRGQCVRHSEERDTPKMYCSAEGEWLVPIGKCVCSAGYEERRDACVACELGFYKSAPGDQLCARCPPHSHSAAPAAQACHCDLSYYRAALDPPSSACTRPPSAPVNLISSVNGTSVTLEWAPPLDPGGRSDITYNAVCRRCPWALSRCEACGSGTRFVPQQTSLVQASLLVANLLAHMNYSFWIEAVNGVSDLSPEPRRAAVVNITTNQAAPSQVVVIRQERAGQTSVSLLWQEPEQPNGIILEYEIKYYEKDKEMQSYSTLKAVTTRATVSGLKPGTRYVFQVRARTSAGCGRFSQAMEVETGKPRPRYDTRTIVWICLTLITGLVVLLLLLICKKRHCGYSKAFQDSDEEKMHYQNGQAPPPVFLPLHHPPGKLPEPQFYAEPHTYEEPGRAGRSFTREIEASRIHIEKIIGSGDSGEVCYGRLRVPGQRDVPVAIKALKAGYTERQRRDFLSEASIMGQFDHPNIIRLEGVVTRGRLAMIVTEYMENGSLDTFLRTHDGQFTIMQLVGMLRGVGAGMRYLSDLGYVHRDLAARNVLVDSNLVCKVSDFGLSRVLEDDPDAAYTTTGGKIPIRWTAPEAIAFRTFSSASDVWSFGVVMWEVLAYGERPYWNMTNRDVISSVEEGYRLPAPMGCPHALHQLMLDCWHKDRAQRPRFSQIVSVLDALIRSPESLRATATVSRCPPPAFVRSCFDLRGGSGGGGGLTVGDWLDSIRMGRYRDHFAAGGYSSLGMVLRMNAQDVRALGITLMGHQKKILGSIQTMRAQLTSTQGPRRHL
The following applies: Compound concentration 1000.0 nM.

Experiment [5] has as its target Cyclin-dependent kinase 4 (Homo sapiens) (UniProt P11802). The following applies: Compound concentration 1000.0 nM.
Experiment [6] has as its target Calcium/calmodulin-dependent protein kinase type II subunit alpha (Homo sapiens) (UniProt Q9UQM7). The note with it: Compound concentration 1000.0 nM.
Experiment [7] has as its system Mast/stem cell growth factor receptor Kit (Homo sapiens), P10721 [V559D]. The following applies: Compound concentration 1000.0 nM.
Experiment [8] deals with Serine/threonine-protein kinase WNK3 (Homo sapiens) (UniProt Q9BYP7). The note with it: Compound concentration 1000.0 nM.
In experiment [9] the target is 5-hydroxytryptamine receptor 2C (Homo sapiens) (UniProt P28335). The note with it: Compound concentration 10.0 uM.
Sequence of 5-hydroxytryptamine receptor 2C (Homo sapiens) (P28335 whole entry): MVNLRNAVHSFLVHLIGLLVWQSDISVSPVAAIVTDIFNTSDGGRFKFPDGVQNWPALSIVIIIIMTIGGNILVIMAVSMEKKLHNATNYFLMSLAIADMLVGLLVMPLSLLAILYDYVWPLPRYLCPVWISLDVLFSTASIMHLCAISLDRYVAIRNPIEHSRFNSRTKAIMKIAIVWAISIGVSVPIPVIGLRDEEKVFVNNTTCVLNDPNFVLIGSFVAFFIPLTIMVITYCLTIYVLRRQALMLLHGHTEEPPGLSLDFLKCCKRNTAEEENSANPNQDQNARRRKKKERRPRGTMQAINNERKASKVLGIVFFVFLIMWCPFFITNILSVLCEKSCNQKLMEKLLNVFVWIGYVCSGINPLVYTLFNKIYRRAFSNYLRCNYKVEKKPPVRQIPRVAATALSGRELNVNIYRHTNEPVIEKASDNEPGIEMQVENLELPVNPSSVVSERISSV

By residual activity is commonly meant the activity still measured, relative to the control. The term inhibition denotes the drop in the measured response relative to a control, in per cent.

Sequence of Calcium/calmodulin-dependent protein kinase type II subunit alpha (Homo sapiens) (Q9UQM7 whole entry): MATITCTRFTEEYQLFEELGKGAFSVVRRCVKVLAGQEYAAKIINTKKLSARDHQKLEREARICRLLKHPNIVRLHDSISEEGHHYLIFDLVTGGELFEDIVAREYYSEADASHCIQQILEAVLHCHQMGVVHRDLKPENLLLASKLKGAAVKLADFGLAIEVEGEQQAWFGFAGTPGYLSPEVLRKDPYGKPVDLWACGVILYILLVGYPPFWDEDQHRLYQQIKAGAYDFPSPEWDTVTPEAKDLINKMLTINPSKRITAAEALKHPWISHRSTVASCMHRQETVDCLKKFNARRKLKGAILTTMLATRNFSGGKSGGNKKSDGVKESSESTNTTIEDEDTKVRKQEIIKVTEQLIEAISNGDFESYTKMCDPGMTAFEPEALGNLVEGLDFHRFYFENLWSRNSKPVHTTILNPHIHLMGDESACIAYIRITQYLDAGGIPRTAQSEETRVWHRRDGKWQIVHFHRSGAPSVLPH
Sequence of Mast/stem cell growth factor receptor Kit (Homo sapiens), P10721 [V559D] (P10721 whole entry V559D): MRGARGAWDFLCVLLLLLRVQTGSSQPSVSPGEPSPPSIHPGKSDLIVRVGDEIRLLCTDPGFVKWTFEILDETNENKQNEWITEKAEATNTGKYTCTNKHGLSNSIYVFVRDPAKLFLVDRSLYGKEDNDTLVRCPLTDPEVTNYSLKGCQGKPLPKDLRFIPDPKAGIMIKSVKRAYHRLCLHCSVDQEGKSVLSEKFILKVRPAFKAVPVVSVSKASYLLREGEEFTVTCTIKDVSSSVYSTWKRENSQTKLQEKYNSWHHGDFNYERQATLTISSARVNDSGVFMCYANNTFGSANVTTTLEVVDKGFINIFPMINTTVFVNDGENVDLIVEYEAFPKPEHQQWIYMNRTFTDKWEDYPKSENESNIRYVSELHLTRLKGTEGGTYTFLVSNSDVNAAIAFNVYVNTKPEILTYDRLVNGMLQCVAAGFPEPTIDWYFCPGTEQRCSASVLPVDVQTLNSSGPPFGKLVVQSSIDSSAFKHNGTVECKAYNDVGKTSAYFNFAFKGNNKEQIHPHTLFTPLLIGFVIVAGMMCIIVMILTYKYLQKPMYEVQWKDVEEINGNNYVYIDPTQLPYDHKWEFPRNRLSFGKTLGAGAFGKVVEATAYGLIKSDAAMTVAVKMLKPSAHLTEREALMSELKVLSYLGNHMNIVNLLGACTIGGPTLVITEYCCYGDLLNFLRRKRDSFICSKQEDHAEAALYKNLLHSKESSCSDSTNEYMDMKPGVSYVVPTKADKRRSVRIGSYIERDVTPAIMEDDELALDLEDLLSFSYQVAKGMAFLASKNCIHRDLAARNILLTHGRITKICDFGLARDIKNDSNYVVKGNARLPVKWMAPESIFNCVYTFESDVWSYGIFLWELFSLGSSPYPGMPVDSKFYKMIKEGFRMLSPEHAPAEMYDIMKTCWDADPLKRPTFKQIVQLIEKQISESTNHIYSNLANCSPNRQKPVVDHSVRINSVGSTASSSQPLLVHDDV
Sequence of Cyclin-dependent kinase 4 (Homo sapiens) (P11802 whole entry): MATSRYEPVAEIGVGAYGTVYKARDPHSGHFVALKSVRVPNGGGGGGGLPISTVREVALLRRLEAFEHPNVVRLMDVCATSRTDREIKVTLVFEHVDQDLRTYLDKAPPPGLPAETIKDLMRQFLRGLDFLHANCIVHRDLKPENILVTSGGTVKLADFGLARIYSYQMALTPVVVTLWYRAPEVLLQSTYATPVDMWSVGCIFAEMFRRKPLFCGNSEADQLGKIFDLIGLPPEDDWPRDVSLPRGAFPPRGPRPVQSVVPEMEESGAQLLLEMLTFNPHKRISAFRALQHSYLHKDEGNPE
Sequence of Insulin receptor (Homo sapiens) (P06213 28-758 limits assumed): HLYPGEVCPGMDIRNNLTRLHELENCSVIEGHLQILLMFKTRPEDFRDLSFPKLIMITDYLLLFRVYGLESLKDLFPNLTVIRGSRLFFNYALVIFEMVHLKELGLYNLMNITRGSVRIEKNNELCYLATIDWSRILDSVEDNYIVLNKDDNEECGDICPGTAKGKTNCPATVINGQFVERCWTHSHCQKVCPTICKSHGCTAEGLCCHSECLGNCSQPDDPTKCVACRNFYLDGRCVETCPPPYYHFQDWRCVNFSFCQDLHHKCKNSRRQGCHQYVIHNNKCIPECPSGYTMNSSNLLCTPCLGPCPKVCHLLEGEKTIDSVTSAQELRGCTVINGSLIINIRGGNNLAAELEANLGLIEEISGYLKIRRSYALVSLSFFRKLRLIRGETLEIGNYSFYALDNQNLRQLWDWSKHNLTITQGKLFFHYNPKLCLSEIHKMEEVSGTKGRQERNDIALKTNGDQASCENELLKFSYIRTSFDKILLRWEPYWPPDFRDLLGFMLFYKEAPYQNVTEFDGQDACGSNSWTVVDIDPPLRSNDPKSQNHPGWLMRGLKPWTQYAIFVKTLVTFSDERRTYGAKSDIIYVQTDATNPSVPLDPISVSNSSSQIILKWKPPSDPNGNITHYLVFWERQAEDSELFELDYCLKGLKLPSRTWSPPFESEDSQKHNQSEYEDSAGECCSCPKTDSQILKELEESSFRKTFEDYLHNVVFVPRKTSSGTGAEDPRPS
Sequence of Insulin receptor (Homo sapiens) (P06213 763-1382 limits assumed): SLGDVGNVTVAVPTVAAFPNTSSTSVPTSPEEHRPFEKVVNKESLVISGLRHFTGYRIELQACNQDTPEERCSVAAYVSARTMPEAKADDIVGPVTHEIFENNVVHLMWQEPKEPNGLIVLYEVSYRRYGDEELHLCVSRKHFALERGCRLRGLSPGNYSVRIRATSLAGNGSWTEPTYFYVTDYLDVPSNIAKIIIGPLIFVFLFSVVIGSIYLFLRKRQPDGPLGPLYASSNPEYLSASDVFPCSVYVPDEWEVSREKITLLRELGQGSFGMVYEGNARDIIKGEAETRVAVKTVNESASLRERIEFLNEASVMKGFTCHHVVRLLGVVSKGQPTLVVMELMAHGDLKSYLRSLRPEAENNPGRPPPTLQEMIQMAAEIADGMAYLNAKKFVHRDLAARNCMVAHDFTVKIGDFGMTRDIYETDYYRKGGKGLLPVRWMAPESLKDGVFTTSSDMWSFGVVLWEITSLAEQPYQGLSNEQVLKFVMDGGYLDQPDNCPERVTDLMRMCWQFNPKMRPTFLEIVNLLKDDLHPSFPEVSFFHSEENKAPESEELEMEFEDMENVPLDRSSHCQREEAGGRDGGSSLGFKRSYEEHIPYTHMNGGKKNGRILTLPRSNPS
Sequence of Serine/threonine-protein kinase B-raf (Homo sapiens), P15056 [V600E] (P15056 whole entry V600E): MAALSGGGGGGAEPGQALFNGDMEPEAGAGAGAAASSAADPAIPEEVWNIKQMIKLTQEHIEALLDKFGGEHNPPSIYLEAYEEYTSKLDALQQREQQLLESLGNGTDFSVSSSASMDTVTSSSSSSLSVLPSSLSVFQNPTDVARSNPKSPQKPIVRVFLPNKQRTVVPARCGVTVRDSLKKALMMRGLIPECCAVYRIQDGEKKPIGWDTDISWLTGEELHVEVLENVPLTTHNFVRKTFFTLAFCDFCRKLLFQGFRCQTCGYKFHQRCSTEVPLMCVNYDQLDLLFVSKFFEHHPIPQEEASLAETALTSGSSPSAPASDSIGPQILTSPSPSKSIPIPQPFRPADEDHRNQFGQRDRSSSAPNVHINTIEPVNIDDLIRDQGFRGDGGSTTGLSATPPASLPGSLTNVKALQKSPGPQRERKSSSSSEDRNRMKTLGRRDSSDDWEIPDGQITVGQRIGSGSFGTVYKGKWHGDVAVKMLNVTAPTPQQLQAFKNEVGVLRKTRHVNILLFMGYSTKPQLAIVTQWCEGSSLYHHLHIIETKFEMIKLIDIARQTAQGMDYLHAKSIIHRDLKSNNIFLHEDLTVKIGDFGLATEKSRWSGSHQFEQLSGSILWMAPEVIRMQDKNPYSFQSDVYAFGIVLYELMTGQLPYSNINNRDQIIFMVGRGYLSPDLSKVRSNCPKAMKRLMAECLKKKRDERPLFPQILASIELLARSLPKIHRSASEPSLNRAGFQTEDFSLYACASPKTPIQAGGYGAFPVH

For `CC1=C(C#N)C(c2ccc3c(c2)c(NC(=O)c2ccccc2C)nn3C)C(C#N)=C(C)N1` [BAY-974], the residual activity in experiment [1] was 100%; in experiment [2], 62%; in [3], 100%; in experiment [4], 100%; in experiment [5] it was 100%; in [6], 90%. Moreover, the residual activity in [7] was 100%; in experiment [8], 82%. The inhibition in experiment [9] is 22.5%.
With `CCc1ccccc1C(=O)Nc1n[nH]c2c(C)c(F)c(C3C(C#N)=C(C)N(C)C(C)=C3C#N)cc12` [BAY-3827], the residual activity was 100% in experiment [1]; 100% in [2]; 100% in experiment [3]; 79% in [4]; 98% in experiment [5]; 47% in experiment [6]. Further, the residual activity in experiment [7] was 83%; in [8], 90%. In addition, the inhibition in experiment [9] is 20%.
